Measurements: ChEMBL document CHEMBL5500364, “Design, synthesis, and biological evaluation of some 2-(3-oxo-5,6-diphenyl-1,2,4-triazin-2(3H)-yl)-N-phenylacetamide hybrids as MTDLs for Alzheimer's disease therapy” (Eur J Med Chem, 2024)
Calls of active or inactive are those of the source. The calls are words filed in the database; no cut-off is given here.

Tests used:
[1] = Toxicity in wildtype Oregon R-positive Drosophila assessed as cell viability in gut at 10 uM by MTT assay relative to control; format: tissue-based; conditions: read-out: Activity
Hippocampus [2] = test: Reversal of scopolamine-induced oxidative stress in male Wistar rat brain hippocampus assessed as decrease in MDA level at 2.5 to 10 mg/kg, po preadministered with compound for 30 mins starting from 7 th day trail followed by scopolamine administration and measured after 5 mins by TBARS assay; format: functional, organism-based; conditions: dose 2.5-10 mg/kg, time 35.0 min
[3] = Toxicity in wildtype Oregon R-positive Drosophila assessed as cell viability in gut at 50 uM by MTT assay relative to control; format: tissue-based; conditions: read-out: Activity
Rattus norvegicus [4] = test: (§1) Reversal of amyloid beta (1 to 42 residues) induced cognitive impairment in Wistar rat assessed as decrease in alpha-synuclein protein level at 10 mg/kg, po pretreated with amyloid beta for 7 days followed by compound administration for 9 days and measured after 5 days by Western blot analysis; format: functional, organism-based; conditions: time 14.0 day
Rattus norvegicus [5] = test: (§2) Reversal of amyloid beta (1 to 42 residues) induced cognitive impairment in Wistar rat assessed as reduction in focal gliosis in cerebral cortex at 2.5 to 10 mg/kg, po pretreated with amyloid beta for 7 days followed by compound administration for 9 days and measured after 5 days by Nissl's staining based analysis; format: functional, organism-based; conditions: dose 2.5-10 mg/kg, time 14.0 day
[6] = biological target: Amyloid-beta precursor protein (Homo sapiens) (UniProt P05067); test: Inhibition of amyloid beta (1 to 42) (unknown origin) self aggregation ar 5 to 20 uM incubated for 48 hrs by Thioflavin T fluorescence assay relative to control; conditions: dose 5-20 µM
Rattus norvegicus [7] = test: (§3) Reversal of amyloid beta (1 to 42 residues) induced cognitive impairment in Wistar rat assessed as decrease in BACE-1 protein level at 10 mg/kg, po pretreated with amyloid beta for 7 days followed by compound administration for 9 days and measured after 5 days by Western blot analysis; format: functional, organism-based; conditions: time 14.0 day
Acetylcholinesterase = Acetylcholinesterase (Homo sapiens, UniProt P22303); test: Mixed type non-competitive inhibition of human erythrocyte AChE using acetylthiocholine iodide as substrate assessed as dissociation constant by dixon plot analysis
SH-SY5Y = test: Neuroprotective activity against amyloid-beta(1 to 42) induced oxidative stress in differentiated human SH-SY5Y cells assessed as increase in cell viability at 40 uM preincubated with amyloid-beta (1 to 42 ) for 24 hrs followed by compound addition and measured after 72 hrs by MTT assay relative to control; format: functional
[8] = Toxicity in wildtype Oregon R-positive Drosophila assessed as eclosion at 50 uM pretreated for 5 days and measured for 15 days relative to control; conditions: 480 h, time 20 day
Drosophila = test: Neuroprotective activity in ey-GAL4>UAS-amyloid beta (1 to 42) induced cellular toxicity in Oregon R-positive Drosophila model assessed as rescue in eye phenotype at 20 uM by Stereo zoom microscopic imaging analysis relative to control; format: functional
[9] = biological target: Amyloid-beta precursor protein (Homo sapiens) (UniProt P05067); test: Inhibition of amyloid beta (1 to 42) (unknown origin) aggregation assessed as appearance of thinner aggregates at 50 uM incubated for 48 hrs by TEM imaging analysis
Rattus norvegicus [10] = test: Reversal of amyloid beta (1 to 42 residues) induced cognitive impairment in Wistar rat assessed as increase in platform crossings at 10 mg/kg, po pretreated with amyloid beta for 7 days followed by compound administration for 9 days and measured after 5 days by Morris water maze test; format: functional, organism-based; conditions: time 14.0 day
[11] = Acute toxicity in Wistar rat assessed as maximum tolerated dose administered orally for 14 days; conditions: in vivo, route po, time 14 day
Hippocampus [12] = test: Reversal of scopolamine-induced oxidative stress in male Wistar rat brain hippocampus assessed as increase in SOD level at 2.5 to 10 mg/kg, po preadministered with compound for 30 mins starting from 7 th day trail followed by scopolamine administration and measured after 5 mins […]; format: functional, organism-based; conditions: dose 2.5-10 mg/kg, time 35.0 min
[13] = Acute toxicity in Wistar rat assessed as toxicity symptoms at 500 to 1000 mg/kg, po administered for 14 days; format: organism-based; conditions: in vivo, 336 h, dose 500-1000 mg/kg, time 14 day
Rattus norvegicus [14] = test: as §1, with “amyloid” for “alpha-synuclein protein”, “level in CA3 region of hippocampus” for “level”, “immuno histochemical” for “Western blot”; format: functional, organism-based; conditions: time 14.0 day
[15] = Acute toxicity in Wistar rat assessed as effect on vacuole appearance in liver at 500 to 1000 mg/kg, po administered for 14 days by histopathological analysis; format: organism-based; conditions: in vivo, 336 h, dose 500-1000 mg/kg, time 14 day
Rattus norvegicus [16] = test: Reversal of amyloid beta (1 to 42 residues) induced cognitive impairment in Wistar rat assessed as decrease in Tau protein level at 10 mg/kg, po pretreated with amyloid beta for 7 days followed by compound administration for 9 days and measured after 5 days by Western blot analysis; format: functional, organism-based; conditions: time 14.0 day
[17] = Acute toxicity in Wistar rat assessed as effect on cardiac muscle at 500 to 1000 mg/kg, po administered for 14 days by histopathological analysis; format: organism-based; conditions: in vivo, 336 h, dose 500-1000 mg/kg, time 14 day
[18] = Toxicity in wildtype Oregon R-positive Drosophila assessed as eclosion at 10 uM pretreated for 5 days and measured for 15 days relative to control; conditions: 480 h, time 20 day
Rattus norvegicus [19] = test: Antialzheimer activity against scopolamine-induced amnesia in male Wistar rat model assessed as restoration of memory function by measuring percentage spontaneous alteration at 2.5 to 10 mg/kg, po preadministered with compound for 30 mins starting from 7 th day trail followed by scopolamine administration and measured after 5 mins by Y maze test; format: functional, organism-based; conditions: dose 2.5-10 mg/kg, time 35.0 min
[20] = Acute toxicity in Wistar rat assessed as effect on kupffer cells appearance in liver at 500 to 1000 mg/kg, po administered for 14 days by histopathological analysis; format: organism-based; conditions: in vivo, 336 h, dose 500-1000 mg/kg, time 14 day
Hippocampus [21] = test: Reversal of scopolamine-induced oxidative stress in male Wistar rat brain hippocampus assessed as increase in catalase level preadministered orally with compound for 30 mins starting from 7 th day trail followed by scopolamine administration and measured after 5 mins by spectrophotometric analysis; format: functional, tissue-based; conditions: dose 2.5-10 mg/kg, route po, time 35.0 min
[22] = Neurotoxicity in human SH-SY5Y cells assessed as reduction in cell population at 80 uM incubated for 24 hrs by MTT assay
[23] = biological target: Dual specificity tyrosine-phosphorylation-regulated kinase 1A (Homo sapiens, UniProt Q13627); test: Inhibition of Dyrk1A (unknown origin) incubated for 1 hrs in presence of [gamma-33P]-ATP by microplate scintillation counter based radiometric protein kinase assay
Rattus norvegicus [24] = test: as §2, with “appearance of pyknotic neuron bodies” for “focal gliosis”, “hippocampus” for “cerebral cortex”; format: functional, organism-based; conditions: dose 2.5-10 mg/kg, time 14.0 day
Rattus norvegicus [25] = test: Antialzheimer activity against scopolamine-induced amnesia in male Wistar rat model assessed as increase in total arm enteries at 2.5 to 10 mg/kg, po preadministered with compound for 30 mins starting from 7 th day trail followed by scopolamine administration and measured after 5 mins by Y maze test; format: functional, organism-based; conditions: dose 2.5-10 mg/kg, time 35.0 min
Rattus norvegicus [26] = test: as §3, with “BACE-1” for “BACE-1 protein”, “level in CA1 region of hippocampus” for “level”, “immuno histochemical” for “Western blot”; format: functional, organism-based; conditions: time 14.0 day
Rattus norvegicus [27] = test: as §3, with “BACE-1” for “BACE-1 protein”, “level in DG region of hippocampus” for “level”, “immuno histochemical” for “Western blot”; format: functional, organism-based; conditions: time 14.0 day
[28] = Acute toxicity in Wistar rat assessed as effect on heart tissue at 500 to 1000 mg/kg, po administered for 14 days by histopathological analysis; format: organism-based; conditions: in vivo, 336 h, dose 500-1000 mg/kg, time 14 day
Rattus norvegicus [29] = test: Reversal of amyloid beta (1 to 42 residues) induced cognitive impairment in Wistar rat assessed as decrease in APP protein level at 10 mg/kg, po pretreated with amyloid beta for 7 days followed by compound administration for 9 days and measured after 5 days by Western blot analysis; format: functional, organism-based; conditions: time 14.0 day

Chain of Amyloid-beta precursor protein (Homo sapiens) (P05067 whole entry, the tested form may be a part): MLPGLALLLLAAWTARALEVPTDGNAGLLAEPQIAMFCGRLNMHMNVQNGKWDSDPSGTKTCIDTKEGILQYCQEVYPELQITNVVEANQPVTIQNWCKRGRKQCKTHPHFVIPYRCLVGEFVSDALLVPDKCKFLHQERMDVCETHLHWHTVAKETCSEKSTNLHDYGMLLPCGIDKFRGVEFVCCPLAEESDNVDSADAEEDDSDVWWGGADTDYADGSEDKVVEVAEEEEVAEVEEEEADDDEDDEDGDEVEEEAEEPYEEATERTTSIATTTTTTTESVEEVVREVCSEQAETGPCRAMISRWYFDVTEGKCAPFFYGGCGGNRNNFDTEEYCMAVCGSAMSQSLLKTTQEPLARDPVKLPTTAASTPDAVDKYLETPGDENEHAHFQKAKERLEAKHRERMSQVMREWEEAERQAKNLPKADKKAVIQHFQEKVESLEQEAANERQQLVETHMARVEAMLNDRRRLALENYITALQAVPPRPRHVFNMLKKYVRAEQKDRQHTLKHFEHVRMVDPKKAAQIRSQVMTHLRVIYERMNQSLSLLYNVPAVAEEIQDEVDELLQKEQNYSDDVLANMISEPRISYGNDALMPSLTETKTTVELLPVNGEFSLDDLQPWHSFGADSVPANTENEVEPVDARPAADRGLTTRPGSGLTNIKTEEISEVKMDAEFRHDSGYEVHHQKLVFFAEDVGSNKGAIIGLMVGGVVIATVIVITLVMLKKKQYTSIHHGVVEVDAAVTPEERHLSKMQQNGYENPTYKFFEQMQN
Chain of Acetylcholinesterase (P22303 whole entry): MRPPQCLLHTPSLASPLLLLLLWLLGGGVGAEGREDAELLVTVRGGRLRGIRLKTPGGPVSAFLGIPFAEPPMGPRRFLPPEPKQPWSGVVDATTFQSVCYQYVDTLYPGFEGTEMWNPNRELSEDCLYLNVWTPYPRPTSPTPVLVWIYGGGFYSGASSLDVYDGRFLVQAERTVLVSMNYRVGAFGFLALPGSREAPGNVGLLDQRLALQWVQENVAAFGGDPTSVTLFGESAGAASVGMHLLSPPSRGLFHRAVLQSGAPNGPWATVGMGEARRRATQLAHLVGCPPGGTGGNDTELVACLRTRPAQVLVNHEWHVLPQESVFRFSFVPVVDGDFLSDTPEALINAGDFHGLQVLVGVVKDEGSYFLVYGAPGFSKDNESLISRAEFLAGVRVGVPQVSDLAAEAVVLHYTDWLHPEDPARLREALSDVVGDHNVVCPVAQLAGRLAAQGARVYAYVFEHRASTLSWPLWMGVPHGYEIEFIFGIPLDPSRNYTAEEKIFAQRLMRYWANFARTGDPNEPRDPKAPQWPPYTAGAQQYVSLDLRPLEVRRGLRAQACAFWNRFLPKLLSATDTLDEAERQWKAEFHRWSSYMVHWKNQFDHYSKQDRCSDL

With COc1cc(NC(=O)Cn2nc(-c3ccccc3)c(-c3ccccc3)nc2=O)cc(OC)c1 the viability at 10 µM [1] was 78%, the Activity (Hippocampus [2]) was “Active” and the viability at 50 µM [3] was 38%. For the same molecule, the Activity (Rattus norvegicus [4]) was “Active”, the Activity (Rattus norvegicus [5]) was “Active” and the inhibition [6] was 23.6%. For the same molecule, the Activity (Rattus norvegicus [7]) was “Active”, the Kd (Acetylcholinesterase) was 0.412 µM and the Activity (SH-SY5Y) was 82%. For the same molecule, the Activity [8] was 25%, the Activity (Drosophila) was 57% and the inhibition [9] was “Active”. The Activity (Rattus norvegicus [10]) was “Active”, the MTD at 336 h [11] was 1000 mg/kg and the Activity (Hippocampus [12]) was “Active”. For the same molecule, the Activity [13] was “Non-Toxic”, the Activity (Rattus norvegicus [14]) was “Active” and the Activity [15] was “Non-Toxic”. The Activity (Rattus norvegicus [16]) was “Active”, the Activity [17] was “Non-Toxic” and the Activity [18] was 85%. For the same molecule, the Activity (Rattus norvegicus [19]) was “Active”, the Activity [20] was “Non-Toxic” and the Activity (Hippocampus [21]) was “Dose-Dependent Effect”. For the same molecule, the Activity [22] was “Non-Toxic”, the IC50 [23] was > 10 µM and the Activity (Rattus norvegicus [24]) was “Active”. The Activity (Rattus norvegicus [25]) was “Active”, the Activity (Rattus norvegicus [26]) was “Active” and the Activity (Rattus norvegicus [27]) was “Active”. The Activity [28] was “Non-Toxic” and the Activity (Rattus norvegicus [29]) was “Active”.
